Measured values from patent EP0477217B1, “STABILIZED, POTENT GRF ANALOGS” (THE UPJOHN COMPANY, priority 1989, dated 1994).
Where no end group is shown, it is not given here.

What was measured:
[1] = test system: release of GH by the pituitary; assay: relative in vivo potency of GRF analogs (Table I); details: expected from the relative in vivo potency at a dose of 0.01 nmol/kg; ED50 not determined
plasma DPP-IV = type: in vitro ADME, bovine
Procedure: Evidence of the improved metabolic stability of the compounds of this invention (when compared to native GRF) is illustrated in Table I by the in vitro stability data provided. It is noteworthy that in bovine plasma in vitro, the analogs having […], Val², Ile² or Leu² were not cleaved after residue 2 by plasma DPP-IV under the experimental conditions used in the study (one hour plasma incubation).

DPP-IV related cleavage (plasma DPP-IV)	Substance	potency relative to its isomer Leu2 Ala15 Leu27 bGRF(1-29)NH2, trifluoroacetate salt, when the ED50 of each is determined and compared [1]
	Ile² Ala¹⁵ Leu²⁷ bGRF(1-29)NH₂, trifluoroacetate salt [Cpd. No. 3]	10-20 times
slight DPP-IV related cleavage	YTDAIFTNSYRKVLAQLSARKLLQDILNR-NH2 [Cpd. No. 1, Thr² Ala¹⁵ Leu²⁷ bGRF(1-29)NH₂, trifluoroacetate salt]	
